Measured values as given in US5306710A, “Method for treating endotoxin shock with CRF” (Regents of the University of California, priority 1992, dated 1994).
No end group written: not given here.

Assays:
[1] = system: rat brain after cold injury (vascular permeability); test: Freeze (cold) injury to brain, Monastral blue vascular leakage; format: in vivo
From the text: An in vivo model of injury to study brain edema has been developed as a reproducible edema model, which has the features of immediate cortical damage followed by the subsequent development of brain edema. This model is described by Chan et al., Brain Research 277, pp. 329-337 (1983). The model uses rats which are anesthetized. A 2.5 cm incision is made over the sagittal suture and the bone of the right hemisphere exposed. A 60 mm^2 plate attached to a brass cup filled with dry ice-acetone mixture, with a temperature of -50° C., is applied to the rat skull for one minute. The animals are sacrificed at various intervals after the onset of cold-injury. A dye is administered intravenously before the freezing. Cortical slices are then obtained of the brain.
16 male rats were randomly divided into eight pairs and one rat in each pair received either saline or CRF (subcutaneously twice at 30 μg/kg, 30 min and 10 min before cold injury). The animals were anesthetized with sodium pentobarbital, 60 mg/kg intraperitoneally, and injected with Monastral blue, 60 mg/kg intravenously. A cold probe was applied onto the skull for […] and the brains taken out 1 hour after cold injury. The staining of brain tissues with Monastral blue, a colloidal pigment that gets trapped between the albuminal surface of the endothelial cell and the basement membrane, was proportional to the degree of vascular leakage. The results from the first pair are shown as FIG. 1.
The size of the lesion, measured as area in mm^2, and the degree of staining intensity, were quantified using an image-analysis software program called JAVA (Jandel Corporation, San Rafeal, Calif.). The stain intensity, given in arbitrary units, was internally calibrated using Monastral blue solutions (1-30 mg/ml) placed on white filter paper. Values are mean ±S. E. M.

[2] = system: rat brain after cold injury (brain edema); test: Freeze injury to cerebral cortex, water and sodium content as index of brain edema; format: in vivo; settings: CRF 30 μg/kg s.c. 2×, tissues 3 hr after cold injury, ± S.E.M., N = 5
Protocol: In a second set of experiments, the brain surface, namely the cerebral cortex, was injured by freezing and the water and sodium content were measured in the cerebral cortex and in the basal ganglia, a part of the brain away from the freeze zone. The water and sodium content of the brain tissue served as an index of brain edema. After freeze injury, the water and sodium content of the cerebral cortex were evaluated relative to non-frozen tissues. CRF administered in two separate doses of 30 μg/kg subcutaneously, one dose 15 min. before the injury and the second dose 90 min. after the first dose, inhibited the two indices of brain edema.
Male SpragueDawley rats, 300-325 g, anesthetized with
ketamineacepromazine, were injected saline or CRF (30 μg/kg s.c.
2×) and injury to cerebral cortex was produced by applying a cold
probe to the skull for 1 min. Brain tissues were obtained 3 hr later and
analyzed for water and sodium content.

[3] = system: rat abdominal muscle after celiotomy (vascular leakage); test: Vascular leakage after celiotomy (4 cm midline incision through abdominal muscle wall), Monastral blue; format: in vivo; settings: for Area / Intensity / Lesion Size: tissues 0.5 hr after surgery
Protocol: Experiments were conducted on male Sprague-Dawley rats 243±15 gm (S. D., Simonsen Labs., Gilroy, Calif.) anesthetized with sodium pentobarbital, 60 mg/kg i.p. Monastral blue, 60 mg/kg i.v., was injected 0.2 ml/100 g, 3 min. before a 4 cm midline incision through the abdominal muscle wall (celiotomy). Saline or CRF was administered to randomizd pairs with N=8 rats per group. The size of the lesion, measured as area in mm^2, an its light intensity, were quantified using the JAVA image-analysis software program. The light intensity, given in arbitrary units, was internally calibrated using Monastral blue solutions (1-30 mg/ml) placed on white filter paper. Values are mean ±S. E. M. FIG. 2 illustrates the respective amount of vascular permeability for one pair of rats (control and treated). Tables III and IV set out data from these experiments.
CRF: injected at various doses subcutaneously 30 min
before a 4 cm midline incision, tissues taken 0.5 hr
CRF: 30 μg/kg s.c. injected 2 hr before a 4 cm midline
incision, tissues taken 0.5 hr after surgery

[4] = Vascular leakage produced by PAF-acether injected subcutaneously into the abdomen; format: in vivo, rat; settings: CRF 30 μg/kg s.c. 30 min before PAF-acether 1 μg/0.1 ml/rat s.c.; muscle removed 0.5 hr later
Protocol: (§1) CRF: 30 μg/kg s.c. injected 30 min before subcutaneous
(§2) injection of PAF-acether (1 μg/0.1 ml/rat) into the
(§3) abdomen; muscle removed 0.5 hr later.

[5] = system: PAF-acether; test: as above; format: in vivo, rat; settings: CRF 30 μg/kg s.c. 30 min before PAF-acether
Protocol: as §1, §2, §3

[6] = system: rat pawskin; settings: mediators injected into the rat pawskin; previously shown; cited from earlier work
[7] = system: blood pressure; settings: prior art report; cited from earlier work
[8] = system: ACTH; settings: prior art report; cited from earlier work
[9] = CRF 15 μg/kg s.c. 30 min before incision
[10] = CRF 30 μg/kg s.c. 30 min before incision
[11] = CRF 30 μg/kg s.c. 2 hr before incision
[12] = CRF 60 μg/kg s.c. 30 min before incision

Substance: Corticotropin-Releasing Factor (SEEPPISLDLTFHLLREVLEMARAEQLAQQAHSNRKLMEII; not fully specified; ends and bridges not checked; UniProt P06850 154-194, looked up) [CRF]
- blinded observer's correct assignment of brains to saline or CRF group ([1]; eight pairs of rats, more damaged vs less damaged brain): 8 out of 8
- lesion size relative to that of the saline-treated group ([1]; rat, CRF 30 μg/kg s.c. twice before cold injury): 44%
- Intensity (stain intensity) ([1]; rat, CRF 30 μg/kg s.c. twice, 30 min and 10 min before cold injury, brains taken 1 hour after injury, mean ± S.E.M.): 2.0 ± 0.05 arbitrary units
- SODIUM, cerebral cortex ([2]; injured cerebral cortex): 271 ± 8 mEg/kg dry wt
- WATER CONTENT, cerebral cortex ([2]; injured cerebral cortex): 77 ± 4%
- SODIUM, basal ganglia ([2]; non-injured basal ganglia): 215 ± 9 mEg/kg dry wt
- WATER CONTENT, basal ganglia ([2]; non-injured basal ganglia): 76 ± 1%
- lesion size relative to that of the saline-treated group [3, 9]: 63%
- Area [3, 9]: 505 ± 16 mm^2
- Intensity [3, 9]: 2.0 ± 0.03 arbitrary units
- Lesion Size [3, 9]: 1031 ± 44
- lesion size relative to that of the saline-treated group [3, 10]: 42%
- Area [3, 10]: 361 ± 18 mm^2
- Intensity [3, 10]: 1.9 ± 0.05 arbitrary units
- Lesion Size [3, 10]: 676 ± 47
- lesion size relative to that of the saline-treated group [3, 11]: 59%
- Area [3, 11]: 477 ± 31 mm^2
- Intensity [3, 11]: 1.9 ± 0.03 arbitrary units
- Lesion Size [3, 11]: 919 ± 51
- lesion size relative to that of the saline-treated group [3, 12]: 29%
- Area [3, 12]: 257 ± 3 mm^2
- Intensity [3, 12]: 1.8 ± 0.05 arbitrary units
- Lesion Size [3, 12]: 468 ± 19
- Intensity [4]: 1.4 ± 0.05
- muscle lesion size relative to that of the saline-treated control group [5]: 44%
- effect on edema-producing properties of inflammatory mediators (serotonin, substance P, bradykinin, neurotensin, histamine) [6]: antagonize the edema-producing properties of these mediators

Substance: oCRF: ovine (sheep) CRF, synthetic, disclosed in U.S. Pat. No. 4,415,558 (SQEPPISLDLTFHLLREVLEMTKADQLAQQAHSNRKLLDIA; not fully specified; ends and bridges not checked; UniProt P01142 148-188, looked up)
- effect on blood pressure [7]: lower blood pressure

Substance: sauvagine (QGPPISIDLSLELLRKMIEIEKQEKEKQQAANNRLLLDTI; not fully specified; ends and bridges not checked; UniProt P01144 1-40, looked up) [40 amino acid peptide generally similar to CRF]
- effect on blood pressure [7]: lowering blood pressure in mammals
- effect on ACTH secretion [8]: stimulating the secretion of ACTH and -endorphin
